Measured values: patent US9310359B2, “Analyte quantification using flow induced dispersion analysis” (FIDA-TECH APS, priority 2010, dated 2016)
Like-named read-outs stand apart in the source and are kept apart here.

Tests used:
[1] = Flow Induced Dispersion Analysis (FIDA) equilibrium binding constant with βCD; conditions: complex with βCD, 67 mM phosphate buffer pH 7.4, 25° C., ±standard deviation
Protocol: The sample volume introduced into the capillary in these experiments corresponds to 9 nL. […] The peak shape may be fitted to a Gaussian peak shape (described in the examples); in this way the temporal peak variance σ^2 can be estimated.
[formula] where σA^2 is the observed variance obtained from a Gaussian fit in the absence of an interacting analyte and σAL^2 is the variance corresponding to the complex AL. […] Corrections due to sample injection and detector variances may be introduced, but as they are small and constant under the present conditions they are neglected.
[formula] where [L] is the concentration of free analyte. […]
In a series of experiments the concentration of βCD in the background electrolyte was varied and the peak variances determined.
βCD, α-naphthol and naproxen was obtained form Sigma-Aldrich. […] The amount of water present in βCD was determined by gravimetric analysis upon drying to constant weight in vacuo at ˜60° C. […]

[2] = Diffusion coefficients from FIDA peak variance (eq 2, capillary radius 25 μm); assay type: physicochemical; conditions: 67 mM phosphate buffer pH 7.4, 25° C., calculated using eq 2, capillary radius 25 μm; for Diffusion coefficient of the complex DAL: complex with βCD
Source text: According to Taylor-Aris theory the temporal peak variance is related to ligand (affinity probe) diffusivity (13,14). Under optimal conditions for a pressure driven flow in a cylindrical capillary the peak variance is inversely proportional to the diffusion coefficient, D, according to (15): [formula] where Rc is the radius of the capillary tube, and tR is the peak appearance time. In the presence of the analyte βCD, the observed variance can be attributed to α-naphthol and the complex between α-naphthol and βCD. We shall assume that the observed variance is a weighted average depending on the fraction of free α-naphthol, x. This assumption is valid when the complexation kinetics is fast compared to the timescale of the experiment (16). […] The experimental points are found to be well described by the model and the estimated binding constants are in good agreement with literature data considering that other methods and different conditions were used (table 1). In table 1, the diffusion coefficients of the analytes and complexes calculated using eq 2 and assuming a capillary radius of 25 μm are also listed. […] Samples were run in triplicate.

[3] = literature data (18, 19); cited from earlier work
[4] = complex with βCD; literature data (17); cited from earlier work
[5] = ACE; complex with βCD; 67 mM phosphate buffer pH 7.4; ±standard deviation
Protocol: Flow induced dispersion and capillary electrophoresis experiments were carried out using an Agilent ^3DCE instrument (Agilent Technologies, Waldbronn, Germany). Uncoated fused silica capillaries of 48.5 cm total length (50 μm i.d., 360 μm o.d.) and 40.5 cm to the detection window were obtained from Polymicro Technologies (Phoenix, Ariz., USA).
New capillaries were conditioned with 1 M NaOH (45 min), Milli-Q water (30 min) and 67 mM phosphate buffer pH 7.4 (30 min). Before a series of experiments the capillary was refreshed by flushing with 1 M NaOH (10 min) and 67 mM phosphate buffer pH 7.4 (10 min). In FIDA, the capillary was preconditioned by flushing the capillary with 0.1 M NaOH (2 min) and run buffer (2 min). The sample was injected by applying a pressure of 50 mbar for 5 sec. Subsequently a pressure of 50 mbar was applied across the capillary to force the sample through it. Finally the sample was detected by UV absorbance at 230 nm. Samples were run in triplicate. The peak variance was obtained by fitting the UV signal to a Gaussian peak shape. The Gaussian in addition to peak variance and peak appearance time the function incorporates a constant A to account for signal height and a constant y0 to account for a possible detector offset.

Equilibrium binding constant K [5]	SMILES	Equilibrium binding constant K [1]	Diffusion coefficient of the free analyte DA [2]	Diffusion coefficient of the complex DAL [2]	Diffusion coefficient of the free analyte DA [3]	Equilibrium binding constant K [4]
	Oc1cccc2ccccc12 [α-Naphthol, α-naphthol]	2400 (±240) M^−1	9.3 · 10^−6 cm^2 s^−1	3.3 · 10^−6 cm^2 s^−1	9.2 · 10^−6e cm^2 s^−1	1250^d M^−1
650 (±28)^f M^−1	COc1ccc2cc([C@H](C)C(=O)O)ccc2c1 [Naproxen, naproxen]	1050 (±185) M^−1	5.6 · 10^−6 cm^2 s^−1	2.8 · 10^−6 cm^2 s^−1	5.8 · 10^−6g cm^2 s^−1	
